Data as given in patent US8748467B2, “Topical formulation” (Bayer Intellectual Property GmbH, priority 2007, dated 2014).

Legend:
[1] = tested on: total thyroxine (tT4); assay: Total thyroxine (tT4) assays before and after each week's treatment (Example 1); type: in vivo; details: cats; twice daily for a week
From the text: At least a fortnight was allowed between treatments.

[2] = in vivo
[3] = Hoffman et al, 2002; cited from earlier work

plasma methimazole levels relative to the published therapeutic range [2] | SMILES | tT4 concentrations over the seven days of the trial period [1] | published plasma levels with methimazole [3]
in the published therapeutic range | CCOC(=O)n1ccn(C)c1=S [carbimazole] | approximately halved | 
 | Cn1cc[nH]c1=S [methimazole] |  | 0.51 ± 0.15 µg/mL
